US10233195B2, “Anti-fibrotic pyridinones” (InterMune, Inc., priority 2014, dated 2019)

Tests used:
[1] = tested on: Fibroblasts (primary human lung and dermal, HFL-1, 3T3 etc); experiment: Cell proliferation assay (BrdU incorporation); assay type: cell-based; conditions: HFL1, stimulant (LPA, TGFb, serum etc), 50% inhibition of the increase of BrdU incorporation
Procedure, shortened: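 Serum-starved (24-48 h) fibroblasts pretreated with compound 0-30 min, then stimulated (LPA, TGFb, serum etc) for 16-24 h before BrdU, labelled a further 8 h. BrdU incorporation read by ELISA at 450 nm; IC50 taken as 50% inhibition of the stimulant-induced increase over unstimulated wells.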

[2] = tested on: TGF-b induced Endothelin-1 production; experiment: ET-1 assay: inhibitory effect on TGF-b induced endothelin-1 production; assay type: cell-based; conditions: Homo sapiens, Fibroblast; fibroblasts, stimulant (TGFb, serum, LPA etc), ET-1 in media by ELISA, 4-parameter fit
Procedure, shortened: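 Fibroblasts (primary human lung/dermal, HFL-1, 3T3) serum-starved 0-48 h, preincubated ~30 min with compound, then stimulated (TGFb, serum or LPA) for 16-48 h. Secreted ET-1 measured by ELISA; EC50 from 4-parameter logistic fit, with CC50 from ATPlite in the same wells.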

## CCn1c(=O)oc2cc(-c3cn(-c4ccc(OC(F)(F)F)cc4)c(=O)cc3C)ccc21 [Compound 430]
[1]
  IC50: < 50 µM
[2]
  EC50: < 50 µM

## Cc1cc(=O)n(-c2ccc(Cl)cc2)cc1-c1cn[nH]c1 [Compound 431]
[1]
  IC50: 50 to 200 µM
[2]
  EC50: > 200 µM

## Cc1cc(=O)n(-c2ccc(Cl)cc2)cc1-c1ccnnc1 [Compound 432]
[1]
  IC50: 50 to 200 µM
[2]
  EC50: > 200 µM

## Cn1cc(-c2cn(-c3ccc(OC(F)(F)F)cc3)c(=O)cc2NCc2cncnc2)cn1 [Compound 531]
[1]
  IC50: < 50 µM
[2]
  EC50: < 50 µM

## Cn1cc(C2=CN(c3ccc(OC(F)(F)F)cc3)CC=C2Oc2ccc(C(N)=O)cc2)cn1 [Compound 535]
[1]
  IC50: < 50 µM
[2]
  EC50: < 50 µM

## Cn1cc(-c2c[nH]c(=O)cc2NCc2ncccn2)cn1 [Compound 542]
[1]
  IC50: < 50 µM
[2]
  EC50: < 50 µM

## CCOc1ccc(-n2cc(-c3cnn(C)c3)c(NCc3ccccc3)cc2=O)c(C)c1 [Compound 543]
[1]
  IC50: < 50 µM
[2]
  EC50: < 50 µM

## Cn1cc(-c2c[nH]c(=O)cc2NCc2ccccn2)cn1 [Compound 544]
[1]
  IC50: < 50 µM
[2]
  EC50: 50 to 200 µM

## O=c1cc(NCc2ccccn2)ccn1-c1ccc(OC(F)(F)F)cc1 [Compound 547]
[1]
  IC50: < 50 µM
[2]
  EC50: < 50 µM

## CCOc1ccc(-n2cc(-c3cnn(C)c3)c(OCCOC)cc2=O)c(C)c1 [Compound 550]
[1]
  IC50: < 50 µM
[2]
  EC50: < 50 µM

## Cc1cc(=O)n(-c2ccc(OC(F)(F)F)cc2)cc1-c1ccc2oc(=O)[nH]c2c1 [Compound 553]
[1]
  IC50: < 50 µM
[2]
  EC50: < 50 µM

## Cc1cc(=O)n(-c2ccccc2NC(N)=O)cc1-c1ccc(F)cc1 [Compound 557]
[1]
  IC50: < 50 µM
[2]
  EC50: < 50 µM

## CCn1c(=O)oc2ccc(-c3c[nH]c(=O)cc3C)cc21 [Compound 562]
[1]
  IC50: < 50 µM
[2]
  EC50: < 50 µM

## Cc1cc(=O)[nH]cc1-c1ccc2c(c1)OCC(=O)N2C [Compound 563]
[1]
  IC50: < 50 µM
[2]
  EC50: < 50 µM

## Cc1cc(=O)[nH]cc1-c1cccc2c1OC(F)(F)O2 [Compound 565]
[1]
  IC50: < 50 µM
[2]
  EC50: < 50 µM

## Cc1nc2c(=O)n(-c3ccc(OC(F)(F)F)cc3)cc(-c3cnn(C)c3)c2o1 [Compound 569]
[1]
  IC50: < 50 µM
[2]
  EC50: < 50 µM

## Cc1nc2c(=O)n(-c3ccc(OC(F)(F)F)cc3)ccc2o1 [Compound 570]
[1]
  IC50: > 200 µM
[2]
  EC50: > 200 µM

## CCOc1ccc(-n2cc(-c3cn[nH]c3)c3nccnc3c2=O)c(C)c1 [Compound 574]
[1]
  IC50: < 50 µM
[2]
  EC50: < 50 µM

## O=c1c2nccnc2ccn1-c1ccc(OC(F)(F)F)cc1 [Compound 575]
[1]
  IC50: < 50 µM
[2]
  EC50: < 50 µM

## Cn1cc(-c2cn(-c3ccc(OC(F)(F)F)cc3)c(=O)c3scnc23)cn1 [Compound 583]
[1]
  IC50: < 50 µM
[2]
  EC50: < 50 µM

## Cn1cc(-c2cn(-c3ccc(OC(F)(F)F)cc3)c(=O)c3[nH]ncc23)cn1 [Compound 588]
[1]
  IC50: < 50 µM
[2]
  EC50: > 200 µM

## O=c1c2[nH]ccc2c(-c2ccc(F)cc2)cn1-c1ccc(OC(F)(F)F)cc1 [Compound 591]
[1]
  IC50: > 200 µM
[2]
  EC50: < 50 µM

## CCn1ccc2c(-c3ccc(F)cc3)cn(-c3ccc(OC(F)(F)F)cc3)c(=O)c21 [Compound 594]
[1]
  IC50: < 50 µM
[2]
  EC50: < 50 µM

## CCn1ccc2c(-c3ccc(F)cc3)c[nH]c(=O)c21 [Compound 595]
[1]
  IC50: 50 to 200 µM
[2]
  EC50: < 50 µM

## Cn1ccc2c(-c3cn[nH]c3)cn(-c3ccc(C#N)cc3)c(=O)c21 [Compound 600]
[1]
  IC50: > 200 µM
[2]
  EC50: < 50 µM

## CCOc1ccc(-n2cc(-c3cn[nH]c3)c3ccn(C)c3c2=O)c(C)c1 [Compound 601]
[1]
  IC50: < 50 µM
[2]
  EC50: < 50 µM

## Cn1ccc2c(-c3cn[nH]c3)cn(-c3ccc(OC(F)(F)F)cc3)c(=O)c21 [Compound 602]
[1]
  IC50: < 50 µM
[2]
  EC50: < 50 µM

## Cn1cc(-c2cn(-c3ccc(OC(F)(F)F)cc3)c(=O)c3[nH]ccc23)cn1 [Compound 603]
[1]
  IC50: < 50 µM
[2]
  EC50: < 50 µM

## O=c1c2[nH]ccc2c(-c2cn[nH]c2)cn1-c1ccc(OC(F)(F)F)cc1 [Compound 604]
[1]
  IC50: < 50 µM
[2]
  EC50: < 50 µM

## Cn1cc(-c2cn(-c3ccc(Cl)cc3)c(=O)c3[nH]ccc23)cn1 [Compound 605]
[1]
  IC50: < 50 µM
[2]
  EC50: < 50 µM

## O=c1c2[nH]ccc2c(-c2cn[nH]c2)cn1-c1ccc(Cl)cc1 [Compound 606]
[1]
  IC50: < 50 µM
[2]
  EC50: < 50 µM

## CCOc1ccc(-n2cc(-c3cn[nH]c3)c3cc[nH]c3c2=O)c(C)c1 [Compound 607]
[1]
  IC50: < 50 µM
[2]
  EC50: < 50 µM

## O=c1c2[nH]ccc2ccn1-c1ccc(OC(F)(F)F)cc1 [Compound 609]
[1]
  IC50: < 50 µM
[2]
  EC50: < 50 µM

## CCn1ccc2ccn(-c3ccc(OC(F)(F)F)cc3)c(=O)c21 [Compound 610]
[1]
  IC50: < 50 µM
[2]
  EC50: < 50 µM

## CCn1ccc2c(-c3cnn(CCO)c3)cn(-c3ccc(OC(F)(F)F)cc3)c(=O)c21 [Compound 615]
[1]
  IC50: < 50 µM
[2]
  EC50: < 50 µM

## CCn1cnc2c(-c3cnn(C)c3)cn(-c3ccc(OC(F)(F)F)cc3)c(=O)c21 [Compound 617]
[1]
  IC50: 50 to 200 µM
[2]
  EC50: < 50 µM

## CCn1cnc2c(-c3cnn(C)c3)c[nH]c(=O)c21 [Compound 618]
[1]
  IC50: 50 to 200 µM
[2]
  EC50: 50 to 200 µM

## CCn1nc2c(-c3cnn(C)c3)cn(-c3ccc(OC(F)(F)F)cc3)c(=O)c2n1 [Compound 619]
[1]
  IC50: < 50 µM
[2]
  EC50: < 50 µM

## CCn1nc2c(-c3cn[nH]c3)cn(-c3ccc(OC(F)(F)F)cc3)c(=O)c2n1 [Compound 620]
[1]
  IC50: < 50 µM
[2]
  EC50: < 50 µM

## CCn1nnc2c(=O)n(-c3ccc(OC(F)(F)F)cc3)cc(-c3cnn(C)c3)c21 [Compound 624]
[1]
  IC50: < 50 µM
[2]
  EC50: < 50 µM

## CCn1nnc2c(-c3cnn(C)c3)cn(-c3ccc(OC(F)(F)F)cc3)c(=O)c21 [Compound 625]
[1]
  IC50: < 50 µM
[2]
  EC50: < 50 µM

## CCn1ccc2c(=O)n(-c3ccc(OC(F)(F)F)cc3)cc(-c3ccc(F)cc3)c21 [Compound 626]
[1]
  IC50: < 50 µM
[2]
  EC50: < 50 µM

## CCOc1ccc(-n2cc(-c3ccnnc3)c(C)cc2=O)c(C)c1 [Compound 629]
[1]
  IC50: > 200 µM
[2]
  EC50: < 50 µM

## Cn1cc(-c2cn(-c3ccc(OC(F)(F)F)cc3)c(=O)c3[nH]nnc23)cn1 [Compound 631]
[1]
  IC50: > 200 µM
[2]
  EC50: < 50 µM

## CCn1cnc2c(=O)n(-c3ccc(OC(F)(F)F)cc3)cc(-c3cnn(C)c3)c21 [Compound 636]
[1]
  IC50: > 200 µM
[2]
  EC50: > 200 µM

## CC(C)n1ccc2c(-c3cnn(C)c3)cn(-c3ccc(OC(F)(F)F)cc3)c(=O)c21 [Compound 647]
[1]
  IC50: < 50 µM
[2]
  EC50: < 50 µM

## CC(C)n1ccc2c(-c3cn[nH]c3)cn(-c3ccc(OC(F)(F)F)cc3)c(=O)c21 [Compound 648]
[1]
  IC50: < 50 µM
[2]
  EC50: < 50 µM

## Cn1cc(-c2cn(-c3ccc(OC(F)(F)F)cc3)c(=O)c3c2ccn3C2CC2)cn1 [Compound 649]
[1]
  IC50: 50 to 200 µM
[2]
  EC50: < 50 µM

## O=c1c2c(ccn2C2CC2)c(-c2cn[nH]c2)cn1-c1ccc(OC(F)(F)F)cc1 [Compound 650]
[1]
  IC50: < 50 µM
[2]
  EC50: < 50 µM

## COCCn1ccc2c(-c3cnn(C)c3)cn(-c3ccc(OC(F)(F)F)cc3)c(=O)c21 [Compound 651]
[1]
  IC50: < 50 µM
[2]
  EC50: < 50 µM

## CCn1cc2c(-c3cnn(C)c3)cn(-c3ccc(OC(F)(F)F)cc3)c(=O)c2n1 [Compound 657]
[1]
  IC50: < 50 µM
[2]
  EC50: < 50 µM

## Cn1cc(-c2cn(-c3ccc(OC(F)(F)F)cc3)c(=O)c3c2ncn3C)cn1 [Compound 665]
[1]
  IC50: 50 to 200 µM
[2]
  EC50: < 50 µM

## O=c1c2[nH]nnc2c(-c2ccc(F)cc2)cn1-c1ccc(OC(F)(F)F)cc1 [Compound 681]
[1]
  IC50: < 50 µM
[2]
  EC50: 50 to 200 µM

## CCn1nnc2c(=O)n(-c3ccc(OC(F)(F)F)cc3)cc(-c3ccc(F)cc3)c21 [Compound 682]
[1]
  IC50: < 50 µM
[2]
  EC50: < 50 µM

## CCn1nnc2c(-c3ccc(F)cc3)cn(-c3ccc(OC(F)(F)F)cc3)c(=O)c21 [Compound 683]
[1]
  IC50: < 50 µM
[2]
  EC50: < 50 µM

## Cn1cc(-c2cn(-c3ccc(OC(F)(F)F)cc3)c(=O)c3c2nnn3CCF)cn1 [Compound 684]
[1]
  IC50: < 50 µM
[2]
  EC50: 50 to 200 µM
